# Assay results from ChEMBL document CHEMBL1201862, “PubChem BioAssay data set” (2004).
# The source made the active and inactive calls.
# What was measured:
# [1] = target: 26S proteasome non-ATPase regulatory subunit 14 (Homo sapiens, UniProt O00487); assay: inhibition of proteasome subunit RPN11 – biochemical, fluorescence polarization, uHTS hits, confirmation (AID 602368); format: functional
# [2] = target: Luciferin 4-monooxygenase (Photinus pyralis, UniProt P08659); assay: inhibition of purified Photinus pyralis luciferase – biochemical, luminescence, dose response (AID 1891)
# [3] = target: 72 kDa type IV collagenase (Homo sapiens, UniProt P08253); assay: Dose Response validation of uHTS RPN11 inhibitor hits using a MMP-2 Fluorescence assay.; format: functional
# [4] = Luminescence Cell-Based Dose Confirmation HTS to Identify Inhibitors of Platelet Dense Granule Release. [Related pubchem assays: 1663 (Primary HTS), 1678 (Summary of Project)]; format: functional
# Prothrombin = Prothrombin (Bos taurus, UniProt P00735); assay: thrombin protease inhibitors – biochemical, fluorescence polarization, uHTS hits, dose response (AID 602369); format: functional
# [5] = target: DNA (cytosine-5)-methyltransferase 1 (Homo sapiens, UniProt P26358); assay: inhibition of DNA methylation by DNMT1 – biochemical, fluorescent molecular beacon, confirmation (AID 602386); format: functional
# Streptokinase A = target: T1, Streptokinase A (Streptococcus pyogenes serotype M1, UniProt P10520); assay: viability-normalized secreted streptokinase activity reduction – plasminogen activation absorbance, OD405, dose response (AID 1914); format: functional, Streptococcus pyogenes M1 GAS;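 note: secreted streptokinase activity via plasminogen activation per viability signal from cell pellet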
# T1 sequence (P10520 whole entry): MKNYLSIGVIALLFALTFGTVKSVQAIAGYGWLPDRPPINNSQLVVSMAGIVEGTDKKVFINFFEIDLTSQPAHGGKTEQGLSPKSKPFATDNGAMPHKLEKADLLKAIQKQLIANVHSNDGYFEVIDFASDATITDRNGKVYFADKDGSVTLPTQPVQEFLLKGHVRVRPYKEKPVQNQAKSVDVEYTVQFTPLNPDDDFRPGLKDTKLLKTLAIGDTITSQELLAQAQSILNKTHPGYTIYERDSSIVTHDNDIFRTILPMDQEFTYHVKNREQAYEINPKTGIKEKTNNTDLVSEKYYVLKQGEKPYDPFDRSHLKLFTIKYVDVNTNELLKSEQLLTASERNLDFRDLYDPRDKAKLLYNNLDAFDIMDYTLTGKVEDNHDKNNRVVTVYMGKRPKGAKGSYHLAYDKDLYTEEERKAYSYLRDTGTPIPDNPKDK
# Genome polyprotein = Genome polyprotein (dengue virus type 2, UniProt P29990); assay: flavivirus cap methylation enzyme inhibition – biochemical, confirmation dose response, primary screen (AID 588689); format: functional
# [6] = system: Streptococcus sp. 'group A'; assay: Streptococcus pyogenes SK(-)GAS viability under kanamycin – luminescence, BacTiterGlo, confirmation, counter-screen for streptokinase expression inhibitor project, dose response (AID 1900); format: functional, organism-based
# Streptococcus = assay: GAS UMAA2166 growth inhibition – luminescence, BacTiterGlo, counter-screen for streptokinase expression inhibitor project, dose response (AID 1915); format: functional, organism-based;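 note: potency for reduction of bacterial viability or growth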
# [7] = target: Intestinal-type alkaline phosphatase (Homo sapiens, UniProt P09923); assay: human intestinal alkaline phosphatase activators, dose response, biochemical, luminescence, uHTS hits (AID 463120); format: functional
# [8] = target: T2, RNA-binding protein pos-1 (Caenorhabditis elegans, UniProt G5EF15); assay: disruptors of C. elegans POS-1 RNA interaction – biochemical, fluorescence polarization, dose response (AID 1964);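 note: purified POS-1 fused to maltose binding protein made in E. coli; potency of compounds blocking POS-1 binding to fluorescent RNA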
# T2 sequence (G5EF15 whole entry): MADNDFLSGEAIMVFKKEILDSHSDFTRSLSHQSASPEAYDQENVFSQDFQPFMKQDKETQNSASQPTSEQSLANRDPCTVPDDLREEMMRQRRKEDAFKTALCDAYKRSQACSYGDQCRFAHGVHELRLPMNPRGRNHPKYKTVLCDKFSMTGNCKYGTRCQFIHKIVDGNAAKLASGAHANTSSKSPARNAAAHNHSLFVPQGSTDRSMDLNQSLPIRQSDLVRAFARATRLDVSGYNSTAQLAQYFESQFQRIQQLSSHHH
# [9] = target: T3, Zinc finger protein mex-5 (Caenorhabditis elegans, UniProt Q9XUB2); assay: potency of MEX-5 RNA-binding blockers – biochemical, C. elegans, fluorescence polarization, dose response (AID 1960)
# T3 sequence (Q9XUB2 whole entry): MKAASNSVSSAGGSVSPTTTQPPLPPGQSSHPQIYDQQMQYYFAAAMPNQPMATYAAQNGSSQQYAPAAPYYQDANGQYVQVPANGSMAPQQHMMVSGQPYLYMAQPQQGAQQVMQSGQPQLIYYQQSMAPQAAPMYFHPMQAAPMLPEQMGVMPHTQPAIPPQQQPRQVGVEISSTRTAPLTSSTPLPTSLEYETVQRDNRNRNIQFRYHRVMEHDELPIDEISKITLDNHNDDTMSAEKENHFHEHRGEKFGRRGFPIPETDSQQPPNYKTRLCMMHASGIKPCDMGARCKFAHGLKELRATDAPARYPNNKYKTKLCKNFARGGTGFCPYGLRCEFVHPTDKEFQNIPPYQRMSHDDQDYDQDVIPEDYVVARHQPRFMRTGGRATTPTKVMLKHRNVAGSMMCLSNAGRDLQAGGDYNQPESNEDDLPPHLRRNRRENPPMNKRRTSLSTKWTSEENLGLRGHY
# Large T antigen = Large T antigen (Simian virus 40, UniProt P03070); format: functional, Betapolyomavirus macacae;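 note: Confirmatory-stage PubChem screen for compounds that inhibit SV40 T antigen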
# [10] = target: Glucose-6-phosphate 1-dehydrogenase (Homo sapiens, UniProt P11413); assay: inhibition of Homo sapiens G6PD, dose series – biochemical, fluorescence, selectivity assay for P. falciparum G6PD inhibitor project, dose response (AID 504792); format: functional
# [11] = target: T4, Apoptotic protease-activating factor 1 (Homo sapiens, UniProt O14727); format: functional
# T4 sequence (O14727 whole entry): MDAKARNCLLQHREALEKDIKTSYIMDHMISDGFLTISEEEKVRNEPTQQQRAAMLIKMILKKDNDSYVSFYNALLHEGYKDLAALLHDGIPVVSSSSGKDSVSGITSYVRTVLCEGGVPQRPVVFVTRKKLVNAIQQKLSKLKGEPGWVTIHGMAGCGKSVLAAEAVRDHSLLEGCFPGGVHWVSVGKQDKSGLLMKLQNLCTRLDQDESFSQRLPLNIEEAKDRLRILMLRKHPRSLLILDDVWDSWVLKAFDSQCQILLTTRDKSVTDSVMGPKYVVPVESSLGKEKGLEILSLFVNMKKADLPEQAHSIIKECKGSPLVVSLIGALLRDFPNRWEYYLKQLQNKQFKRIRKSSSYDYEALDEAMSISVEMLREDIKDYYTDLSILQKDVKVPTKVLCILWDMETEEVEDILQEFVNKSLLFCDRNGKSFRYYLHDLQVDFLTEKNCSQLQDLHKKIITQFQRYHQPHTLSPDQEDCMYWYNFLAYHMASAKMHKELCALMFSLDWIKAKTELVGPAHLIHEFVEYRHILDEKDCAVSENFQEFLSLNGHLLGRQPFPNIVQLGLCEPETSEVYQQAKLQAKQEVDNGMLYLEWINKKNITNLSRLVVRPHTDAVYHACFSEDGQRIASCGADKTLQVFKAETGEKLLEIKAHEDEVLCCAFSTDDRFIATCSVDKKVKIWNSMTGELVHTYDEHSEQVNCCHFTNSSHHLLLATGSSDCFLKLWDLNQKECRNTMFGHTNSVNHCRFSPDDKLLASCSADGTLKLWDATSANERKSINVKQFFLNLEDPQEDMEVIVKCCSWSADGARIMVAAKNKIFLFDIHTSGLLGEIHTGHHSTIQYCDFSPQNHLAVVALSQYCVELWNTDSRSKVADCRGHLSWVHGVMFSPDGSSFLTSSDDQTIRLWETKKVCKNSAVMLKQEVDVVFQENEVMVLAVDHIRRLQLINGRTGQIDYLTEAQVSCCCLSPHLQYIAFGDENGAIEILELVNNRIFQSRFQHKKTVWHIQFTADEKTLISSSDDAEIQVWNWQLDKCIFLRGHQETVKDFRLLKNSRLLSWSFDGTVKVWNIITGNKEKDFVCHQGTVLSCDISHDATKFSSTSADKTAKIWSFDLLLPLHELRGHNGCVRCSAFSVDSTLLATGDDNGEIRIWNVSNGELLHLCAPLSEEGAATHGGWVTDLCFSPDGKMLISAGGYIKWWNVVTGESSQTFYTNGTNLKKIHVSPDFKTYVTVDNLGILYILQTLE
# INS1 = assay: INS-1E survival protection against cytokine death – cell-based, luminescence, retest, dose response (AID 449756); format: functional; details: Rattus norvegicus;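 note: cell death triggered by IL-1 beta plus TNF-alpha plus IFN-gamma mixture; protective hits raise ATP signal compared with cytokine alone wells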
# [12] = NIH3T3 cell viability loss – ATP luminescence, mouse fibroblasts, counter-screen, dose response (AID 2010); format: functional, cell-based;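 note: cells exposed to compound for about 90 hours before reading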
# [13] = DRD fibroblast viability loss – cell-based, non-viral oncogenic, luminescence, dose response (AID 1934); format: functional; details: Homo sapiens
# BJ [14] = assay: cells; format: functional, cell-based; details: Homo sapiens
# [15] = Luminescence-based dose response cell-based high throughput screening assay for cytotoxic compounds using the IEC-6 intestinal epithelial cell line. [Related pubchem assays: 1858 (Summary AID.), 1825 (Counterscreen.), 1907 (Confirmation screen.)]; format: functional
# BJ [16] = assay: BJ-TERT-LT-ST fibroblast viability loss – cell-based, RAS-independent, luminescence, dose response (AID 1935); format: functional; details: Homo sapiens;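 note: BJ fibroblasts immortalized with TERT plus LT and ST oncogenes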
# BJ [17] = assay: BJ-TERT fibroblast viability loss – cell-based, RAS-independent, luminescence, dose response (AID 1933); format: functional; details: Homo sapiens
# Nonstructural protein 1 = Nonstructural protein 1 (Influenza A virus, UniProt Q194T2); format: functional, Influenza A virus (A/California/07/2009(H1N1))
# [18] = HEK-293T viability loss after treatment – luminescence, T-cell screen hits, cytotoxicity control for TCR NF-kB inhibitor project, dose response (AID 489026); format: functional, cell-based;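 note: cells exposed to compound about 14 hours before the viability readout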
# [19] = Trypanosoma cruzi growth suppression in host cells – NIH3T3 host cells, beta-gal luminescence, confirmation (AID 2044); format: functional, cell-based;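 note: intracellular parasites grown in NIH/3T3 mouse fibroblasts as host cells; luminescent beta-galactosidase reporter signal from transgenic T. cruzi replicating inside host cells; inhibitors lower the luminescence signal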
# Chain of 26S proteasome non-ATPase regulatory subunit 14 (O00487 whole entry): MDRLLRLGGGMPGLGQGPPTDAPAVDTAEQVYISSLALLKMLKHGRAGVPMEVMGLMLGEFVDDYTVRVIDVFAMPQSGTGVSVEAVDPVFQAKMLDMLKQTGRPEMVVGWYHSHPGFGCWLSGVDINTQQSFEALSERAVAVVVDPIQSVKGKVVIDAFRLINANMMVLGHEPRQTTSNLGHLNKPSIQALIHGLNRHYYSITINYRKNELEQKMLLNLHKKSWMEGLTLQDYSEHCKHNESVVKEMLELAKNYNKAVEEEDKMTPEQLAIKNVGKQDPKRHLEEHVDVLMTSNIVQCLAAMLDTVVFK
# Chain of 72 kDa type IV collagenase (P08253 whole entry): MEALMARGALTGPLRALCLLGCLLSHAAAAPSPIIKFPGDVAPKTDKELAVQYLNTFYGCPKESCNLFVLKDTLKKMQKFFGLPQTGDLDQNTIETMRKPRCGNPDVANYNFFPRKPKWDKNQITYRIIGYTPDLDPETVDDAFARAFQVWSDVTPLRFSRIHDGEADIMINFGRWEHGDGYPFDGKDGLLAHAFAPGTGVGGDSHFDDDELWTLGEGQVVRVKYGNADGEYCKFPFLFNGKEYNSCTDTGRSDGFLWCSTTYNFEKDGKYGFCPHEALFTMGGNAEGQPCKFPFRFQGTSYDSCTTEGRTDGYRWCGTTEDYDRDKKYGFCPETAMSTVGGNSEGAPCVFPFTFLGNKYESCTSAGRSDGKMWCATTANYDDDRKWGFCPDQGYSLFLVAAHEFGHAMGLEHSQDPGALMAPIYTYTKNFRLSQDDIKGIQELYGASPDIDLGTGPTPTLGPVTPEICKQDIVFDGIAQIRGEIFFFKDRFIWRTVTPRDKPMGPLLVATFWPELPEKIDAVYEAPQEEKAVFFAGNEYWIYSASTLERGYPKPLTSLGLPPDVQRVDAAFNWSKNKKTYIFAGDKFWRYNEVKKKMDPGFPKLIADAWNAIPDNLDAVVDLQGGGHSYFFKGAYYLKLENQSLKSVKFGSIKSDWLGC
# Chain of DNA (cytosine-5)-methyltransferase 1 (P26358 whole entry): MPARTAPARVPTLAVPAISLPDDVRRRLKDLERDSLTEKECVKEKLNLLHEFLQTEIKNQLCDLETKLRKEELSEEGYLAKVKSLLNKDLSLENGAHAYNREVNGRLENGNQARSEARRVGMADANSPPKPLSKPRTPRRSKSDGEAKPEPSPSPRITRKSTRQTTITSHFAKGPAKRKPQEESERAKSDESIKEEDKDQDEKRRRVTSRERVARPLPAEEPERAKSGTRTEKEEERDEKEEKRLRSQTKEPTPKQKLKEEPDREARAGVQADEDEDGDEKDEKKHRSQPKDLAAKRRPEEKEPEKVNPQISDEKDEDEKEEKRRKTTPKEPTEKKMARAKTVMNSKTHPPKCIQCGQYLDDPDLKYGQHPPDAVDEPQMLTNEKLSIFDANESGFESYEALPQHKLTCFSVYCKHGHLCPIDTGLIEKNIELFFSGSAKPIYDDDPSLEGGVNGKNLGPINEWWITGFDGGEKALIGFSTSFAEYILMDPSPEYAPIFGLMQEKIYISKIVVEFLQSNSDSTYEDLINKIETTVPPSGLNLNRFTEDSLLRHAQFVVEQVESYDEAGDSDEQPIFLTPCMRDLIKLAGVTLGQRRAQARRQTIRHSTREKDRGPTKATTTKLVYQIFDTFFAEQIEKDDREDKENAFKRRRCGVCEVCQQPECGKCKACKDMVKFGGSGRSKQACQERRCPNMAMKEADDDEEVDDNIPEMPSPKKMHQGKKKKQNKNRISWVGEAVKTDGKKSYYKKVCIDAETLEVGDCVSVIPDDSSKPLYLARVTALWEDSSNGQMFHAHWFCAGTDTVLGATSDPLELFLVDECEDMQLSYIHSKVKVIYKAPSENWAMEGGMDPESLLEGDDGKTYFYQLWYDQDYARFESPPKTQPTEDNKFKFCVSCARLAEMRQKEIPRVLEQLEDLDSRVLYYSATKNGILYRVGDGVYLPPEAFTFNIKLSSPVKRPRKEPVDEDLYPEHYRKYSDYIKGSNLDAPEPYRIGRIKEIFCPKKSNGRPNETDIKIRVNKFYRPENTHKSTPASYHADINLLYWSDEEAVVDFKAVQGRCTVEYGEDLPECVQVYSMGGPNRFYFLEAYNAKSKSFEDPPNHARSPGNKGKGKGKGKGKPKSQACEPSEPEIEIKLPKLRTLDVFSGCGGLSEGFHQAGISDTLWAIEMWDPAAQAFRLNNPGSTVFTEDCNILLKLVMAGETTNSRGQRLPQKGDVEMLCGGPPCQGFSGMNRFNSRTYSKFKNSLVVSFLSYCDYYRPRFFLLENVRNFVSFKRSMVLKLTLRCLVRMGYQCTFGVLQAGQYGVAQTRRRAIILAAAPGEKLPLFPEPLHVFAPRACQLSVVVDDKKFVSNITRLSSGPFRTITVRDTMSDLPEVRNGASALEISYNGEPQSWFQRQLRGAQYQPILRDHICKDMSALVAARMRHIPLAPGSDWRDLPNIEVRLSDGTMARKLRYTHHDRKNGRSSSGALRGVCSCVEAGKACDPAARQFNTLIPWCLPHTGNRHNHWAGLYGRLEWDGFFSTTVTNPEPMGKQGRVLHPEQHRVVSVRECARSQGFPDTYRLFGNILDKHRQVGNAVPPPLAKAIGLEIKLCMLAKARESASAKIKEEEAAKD
# Chain of Glucose-6-phosphate 1-dehydrogenase (P11413 whole entry): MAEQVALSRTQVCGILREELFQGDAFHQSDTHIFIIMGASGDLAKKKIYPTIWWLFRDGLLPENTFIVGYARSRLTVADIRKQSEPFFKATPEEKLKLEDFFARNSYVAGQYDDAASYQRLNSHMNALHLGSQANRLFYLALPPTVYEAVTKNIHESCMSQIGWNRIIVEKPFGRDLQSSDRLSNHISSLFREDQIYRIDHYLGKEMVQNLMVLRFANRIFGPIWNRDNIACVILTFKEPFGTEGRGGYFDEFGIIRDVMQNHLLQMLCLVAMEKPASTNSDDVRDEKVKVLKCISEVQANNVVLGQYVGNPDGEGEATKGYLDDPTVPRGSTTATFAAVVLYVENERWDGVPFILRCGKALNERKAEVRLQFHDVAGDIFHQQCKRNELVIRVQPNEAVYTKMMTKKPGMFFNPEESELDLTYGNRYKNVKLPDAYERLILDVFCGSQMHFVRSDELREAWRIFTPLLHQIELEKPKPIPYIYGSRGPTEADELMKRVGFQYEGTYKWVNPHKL
# Chain of Nonstructural protein 1 (Q194T2 whole entry): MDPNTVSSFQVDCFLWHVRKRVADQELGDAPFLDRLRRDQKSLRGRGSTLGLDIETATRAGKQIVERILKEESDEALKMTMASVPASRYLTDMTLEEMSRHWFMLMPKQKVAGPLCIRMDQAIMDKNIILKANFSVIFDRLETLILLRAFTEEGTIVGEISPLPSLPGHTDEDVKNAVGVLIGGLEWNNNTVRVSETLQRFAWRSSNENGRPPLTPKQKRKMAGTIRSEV
# Chain of Luciferin 4-monooxygenase (P08659 whole entry): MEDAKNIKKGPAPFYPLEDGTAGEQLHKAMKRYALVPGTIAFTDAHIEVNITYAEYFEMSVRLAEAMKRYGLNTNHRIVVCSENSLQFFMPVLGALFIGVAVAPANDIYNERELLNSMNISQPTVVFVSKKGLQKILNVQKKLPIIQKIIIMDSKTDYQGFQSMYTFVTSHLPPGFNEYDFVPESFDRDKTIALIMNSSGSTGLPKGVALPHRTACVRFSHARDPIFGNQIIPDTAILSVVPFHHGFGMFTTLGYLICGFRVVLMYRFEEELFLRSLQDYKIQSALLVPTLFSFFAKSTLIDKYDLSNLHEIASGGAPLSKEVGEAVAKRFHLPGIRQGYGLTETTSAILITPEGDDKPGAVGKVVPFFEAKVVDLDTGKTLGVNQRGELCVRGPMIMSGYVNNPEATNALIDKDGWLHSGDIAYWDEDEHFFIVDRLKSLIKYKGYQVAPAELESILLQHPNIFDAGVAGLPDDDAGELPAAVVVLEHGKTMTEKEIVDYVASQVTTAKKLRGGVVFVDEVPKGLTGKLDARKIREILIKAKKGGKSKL
# Chain of Intestinal-type alkaline phosphatase (P09923 whole entry, the tested form may be a part): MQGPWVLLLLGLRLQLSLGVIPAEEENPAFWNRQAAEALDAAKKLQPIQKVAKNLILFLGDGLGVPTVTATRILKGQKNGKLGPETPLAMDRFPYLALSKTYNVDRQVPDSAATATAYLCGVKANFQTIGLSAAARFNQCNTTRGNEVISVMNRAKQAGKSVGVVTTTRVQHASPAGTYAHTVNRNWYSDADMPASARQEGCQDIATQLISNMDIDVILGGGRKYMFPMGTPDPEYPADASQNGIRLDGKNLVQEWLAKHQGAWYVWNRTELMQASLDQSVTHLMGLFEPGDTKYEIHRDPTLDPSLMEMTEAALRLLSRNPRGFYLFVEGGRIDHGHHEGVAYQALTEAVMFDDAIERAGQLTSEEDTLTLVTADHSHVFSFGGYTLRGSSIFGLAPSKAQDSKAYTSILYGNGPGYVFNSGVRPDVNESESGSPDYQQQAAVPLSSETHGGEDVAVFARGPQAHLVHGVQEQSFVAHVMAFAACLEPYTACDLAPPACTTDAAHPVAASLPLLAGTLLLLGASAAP
structure (smiles),measurement,setting,value
COC(=O)c1c(-c2cccnc2)csc1NC(=O)c1ccc2c(c1)OCO2,IC50,[1],37.5 µM (active)
same,EC50,[2],0.77 µM (active)
same,IC50,[3],> 100 µM (inactive)
same,EC50,[4],8.11 µM (active)
same,IC50,Prothrombin,96.1 µM (active)
COc1ccccc1-c1cc(C(=O)Nc2cc(C)nn2-c2ccccc2)no1,IC50,[1],36 µM (active)
same,IC50,[3],> 100 µM (inactive)
same,IC50,Prothrombin,> 100 µM (inactive)
O=C(CNC(=O)c1ccc([N+](=O)[O-])cc1)N/N=C\c1ccc(OC(=O)c2ccccc2)cc1,IC50,[5],> 99 µM (inactive)
O=C(O)CN1C(=O)/C(=C\c2cc(Br)ccc2OCc2ccccc2Cl)SC1=S,EC50,Streptokinase A,> 150 µM (not active)
same,IC50,Genome polyprotein,24.3 µM (active)
same,EC50,[6],1.97 µM (active)
same,EC50,Streptococcus,5.9 µM (active)
same,IC50,[5],4.7 µM (active)
Cc1ccc(-n2ncc3c(NNC(=O)c4ccco4)ncnc32)cc1C,EC50,[7],6.81 µM (active)
same,EC50,[8],> 300 µM (not active)
same,EC50,[9],142 µM (active)
COc1cc(/C=C2\SC(c3ccc(C)cc3)=NC2=O)cc(OC)c1O,IC50,Large T antigen,16.5 µM (active)
same,IC50,[1],2.18 µM (active)
same,IC50,[10],63.1 µM (inactive)
same,IC50,[3],42.1 µM (active)
same,IC50,Prothrombin,1.37 µM (active)
Cc1ccc(OCC(=O)N(Cc2nnc(-c3ccccc3Cl)o2)C2CC2)cc1C,IC50,[11],31.9 µM (active)
C/C(=N\NC(=O)c1ccc(Cl)c(Cl)c1)c1ccccn1,AC50,INS1,0.278 µM (active)
same,EC50,[12],0.656 µM (active)
same,EC50,[6],0.099 µM (active)
same,EC50,[13],1.01 µM (active)
same,EC50,BJ [14],1.37 µM (active)
same,IC50,[15],0.563 µM (active)
same,EC50,BJ [16],0.674 µM (inconclusive)
same,EC50,BJ [17],0.38 µM (inconclusive)
same,EC50,Streptococcus,1.84 µM (active)
same,IC50,Nonstructural protein 1,3.03 µM (active)
same,IC50,[18],> 80 µM (inactive)
same,EC50,[19],0.125 µM (active)
